Measured values taken from US11840686B2, “Modulation of prekallikrein (PKK) expression” (Ionis Pharmaceuticals, Inc., priority 2013, dated 2023).
Strand notation (5' to 3'): a small letter for the sugar, then the base; units joined by * are phosphorothioate-linked, units joined directly phosphodiester-linked; [ ] holds rarer units or linkages, { } end groups; capitals alone tell only the bases. e = 2'-O-(2-methoxyethyl) (MOE); k = constrained ethyl (cEt); [5mC] = 5-methylcytosine; d = 2'-deoxy (DNA)

Test system: human PKK mRNA
Test: Antisense inhibition of human PKK mRNA in HepaRG cells, 1,000 nM, MOE/deoxy/cEt oligonucleotides (Example 3)
Type: cell-based
Method in brief: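 Readout is percent PKK mRNA reduction against untreated controls, by real-time PCR (RTS3454) adjusted for total RNA via RIBOGREEN. Oligonucleotides, phosphorothioate gapmers of 16 nucleosides with cEt, MOE and deoxy sugars, were delivered at 1,000 nM by electroporation to 20,000 HepaRG cells/well for roughly 24 h.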

[1] = HepaRG cells, electroporation with 1,000 nM antisense oligonucleotide, approx. 24 hours, PKK mRNA by RT-PCR (RTS3454), relative to untreated control cells, Table 25 experiment
[2] = HepaRG cells, electroporation with 1,000 nM antisense oligonucleotide, approx. 24 hours, PKK mRNA by RT-PCR (RTS3454), relative to untreated control cells, Table 26 experiment
[3] = Table 30, human PKK mRNA, HepaRG cells, 1,000 nM antisense oligonucleotide
[4] = HepaRG cells, electroporation with 1,000 nM antisense oligonucleotide, approximately 24 hours, primer probe set RTS3454, relative to untreated control cells, experiment of Table 24
[5] = PKK mRNA, HepaRG cells, 1,000 nM antisense oligonucleotide, Table 31
[6] = Table 20, HepaRG cells, electroporation with 1,000 nM antisense oligonucleotide, approximately 24 hours, PKK mRNA by RT-PCR (RTS3454), relative to untreated control cells
[7] = Table 22 experiment, HepaRG cells, electroporation with 1,000 nM antisense oligonucleotide, approx. 24 hours, PKK mRNA by RT-PCR (RTS3454), relative to untreated control cells

## 548223 (eT*eA*kG*dA*d[5mC]*d[5mC]*d[5mC]*dA*dG*dA*dA*dT*d[5mC]*kA*kT*eG; antisense) [compound 548223]
[1]
  % inhibition: 50%

## 548299 (e[5mC]*eA*kT*dT*dG*dT*dG*d[5mC]*dT*d[5mC]*dA*dA*d[5mC]*kT*kG*eA; antisense) [compound 548299]
[2]
  % inhibition: 35%

## 548421 (antisense e[5mC]*eA*k[5mC]*dT*dG*dT*d[5mC]*d[5mC]*dT*dA*dT*dA*dT*k[5mC]*kA*e[5mC]) [compound 548421]
[3]
  % inhibition: 56%

## 548412 (antisense eT*eA*kA*d[5mC]*dA*dG*dT*dA*dT*d[5mC]*dA*d[5mC]*dT*kG*kT*eA) [compound 548412]
[3]
  % inhibition: 17%

## 548209 (e[5mC]*eA*kA*dT*d[5mC]*dT*d[5mC]*dT*dG*dG*dT*d[5mC]*dA*kA*kT*e[5mC]; antisense) [compound 548209]
[1]
  % inhibition: 57%

## 548405 (e[5mC]*eG*kG*dA*d[5mC]*d[5mC]*dT*dT*d[5mC]*dA*dT*d[5mC]*dT*kT*k[5mC]*eA; antisense) [compound 548405]
[3]
  % inhibition: 35%

## 547957 (eG*eG*kT*dT*dA*dA*dA*dA*dG*dG*d[5mC]*dT*dA*kT*kA*eT; antisense) [compound 547957]
HepaRG cells, electroporation with 1,000 nM antisense oligonucleotide, approximately 24 hours, primer probe set RTS3454, relative to untreated control cells, experiment of Table 23
  % inhibition: 6%

## 548112 (antisense eG*eT*kG*dA*d[5mC]*dT*dG*d[5mC]*dA*dT*d[5mC]*dT*dG*kA*kG*e[5mC]) [compound 548112]
Table 19, HepaRG cells, electroporation with 1,000 nM antisense oligonucleotide, approximately 24 hours, PKK mRNA by RT-PCR (RTS3454), relative to untreated control cells
  % inhibition: 23%

## 548003 (eT*eA*kA*d[5mC]*d[5mC]*dA*dG*dA*dG*d[5mC]*dT*d[5mC]*d[5mC]*k[5mC]*kT*eT; antisense) [compound 548003]
[4]
  % inhibition: 66%

## 548036 (e[5mC]*e[5mC]*kA*d[5mC]*dT*dA*dT*dA*dG*dA*dT*dG*d[5mC]*kG*k[5mC]*e[5mC]; antisense) [compound 548036]
[4]
  % inhibition: 74%

## 548251 (antisense eG*e[5mC]*k[5mC]*dT*dT*dT*dG*dT*dG*dA*dT*dG*d[5mC]*kG*kA*eT) [compound 548251]
[2]
  % inhibition: 13%

## 548639 (antisense eT*eG*kG*dG*dA*dA*dG*dA*dA*dA*d[5mC]*dT*dA*kG*k[5mC]*eA) [compound 548639]
[5]
  % inhibition: 10%

## 547867 (antisense e[5mC]*e[5mC]*kT*dT*dA*dG*dA*d[5mC]*dA*d[5mC]*dA*dT*dT*kA*kA*eA) [compound 547867]
[6]
  % inhibition: 34%
[7]
  % inhibition: 53%

## 548672 (antisense e[5mC]*e[5mC]*k[5mC]*d[5mC]*d[5mC]*d[5mC]*dA*dG*dA*dA*dA*dT*d[5mC]*k[5mC]*k[5mC]*eA) [compound 548672]
[5]
  % inhibition: 40%

## 548434 (antisense eA*e[5mC]*kA*dA*dT*dA*dT*d[5mC]*dA*d[5mC]*dT*dG*dT*kA*k[5mC]*e[5mC]) [compound 548434]
[3]
  % inhibition: 63%

## 548565 (antisense eG*eG*k[5mC]*dA*dT*dT*dA*dG*dG*dA*dT*dA*dG*kG*k[5mC]*eA) [compound 548565]
HepaRG cells, 1,000 nM antisense oligonucleotide, Table 29
  % inhibition: 63%

## 548329 (antisense eA*eG*k[5mC]*dA*dG*dA*dT*d[5mC]*dT*dG*dG*dG*dT*kT*kG*eT) [compound 548329]
Table 27, HepaRG cells, 1,000 nM antisense oligonucleotide, human PKK mRNA
  % inhibition: 59%

## 547900 (eT*eG*kT*dA*d[5mC]*dT*dT*dT*dA*dA*dT*dA*dG*kG*k[5mC]*eA; antisense) [compound 547900]
[6]
  % inhibition: 93%
[7]
  % inhibition: 68%

## 548234 (eT*eT*kA*dT*dT*dG*dT*dA*dG*d[5mC]*d[5mC]*dA*dT*kA*k[5mC]*eA; antisense) [compound 548234]
[2]
  % inhibition: 17%

## 548452 (eT*eA*kT*dA*dT*d[5mC]*dA*d[5mC]*dT*dG*dT*dA*d[5mC]*k[5mC]*kT*eA; antisense) [compound 548452]
[3]
  % inhibition: 65%

## 548007 (e[5mC]*eT*k[5mC]*dA*dA*dA*dG*dA*dG*dT*dA*dA*d[5mC]*k[5mC]*kA*eG; antisense) [compound 548007]
[4]
  % inhibition: 70%

## 548001 (antisense eA*e[5mC]*k[5mC]*dA*dG*dA*dG*d[5mC]*dT*d[5mC]*d[5mC]*d[5mC]*dT*kT*kG*eT) [compound 548001]
[4]
  % inhibition: 64%
